Assay results published in US20180077928A1, “INSECT REPELLENT FIBER AND INSECT REPELLENT SCREEN USING SAME” (priority 2015, published 2018).

Columns and labels:
[1] = Acceptable Daily Intake (ADI) set by WHO and FAO; acceptable intake used in evaluation criteria; set-up: species or system human; details: person/child who weighs 15 kg, calculated from ADI
Description: When the amount of the insect repellent 4 (permethrin) exposed to the surface of the insect repellent fiber 1 is less than 0.4 μg per gram of the insect repellent fiber 1, the insect repellent effect cannot be sufficiently exerted. […] The WHO and FAO (Food and Agriculture Organization of the United Nations) have investigated harmful effects of permethrin to a human body on the basis of a large amount of data obtained by animal tests and the like. According to the investigation results, the amount of permethrin that can be ingested by human over a lifetime without an appreciable health risk, or also referred to as ADI (Acceptable Daily Intake), is set to “0.05 mg/day/kg”. For example, for people who weigh 15 kg (weight of around a child), this value per day is calculated to be 0.75 mg. This means that permethrin of such an amount may be continually ingested without an appreciable health risk. […]
The safety was evaluated according to the following evaluation criteria by assuming a situation that a child who weighs 15 kg licked a whole area of a screen door in which the insect repellent screen having an area of 1 m^2 was installed. […] It is noted that when the insert repellent screen was evaluated as “good”, the insect repellent screen was determined to be safe.

[2] = human, over a lifetime without appreciable health risk; WHO and FAO; cited from earlier work

Row | Structure (SMILES) | acceptable intake per day [1] | ADI (Acceptable Daily Intake) [2]
1 | CC1(C)C(C=C(Cl)Cl)C1C(=O)OCc1cccc(Oc2ccccc2)c1 (stereo not drawn) [permethrin] | 0.75 mg | 0.05 mg/day/kg
2 | CCOc1ccc(C(C)(C)COCc2cccc(Oc3ccccc3)c2)cc1 [ethofenprox] | 0.45 mg | –
